This is an account of results in US7863446B2, “Heterocycles” (Orchid Research Laboratories Limited, priority 2006, dated 2011).

Structures are written as SMILES.

The subject of data set [1] is HCT-116. As to the kind of experiment: Anti-cancer screen (MTT), HCT-116. The settings on record: Homo sapiens, HCT-116, 48 hours. The data set is classed as cell-based. How it is done: (§1) Experimental drugs are screened for anti-cancer activity in three cell lines for their GI50, TG1 and LC50 values (using 5 concentrations for each compound). The cell lines are maintained in DMEM containing 10% fetal bovine serum. 96 well microtiter plates are inoculated with cells in […] for 24 hours at 37° C., 5% CO2, 95% air and 100% relative humidity. 5000 HCT116 cells/well, 5000 NCIH460 cells/well, 10000 U251 cells/well and 5000 MDAMB231 cells/well are plated. A separate plate with these cell lines is also inoculated to determine cell viability before the addition of the compounds (T0).
(§2) Addition of Experimental Drugs
(§3) Following 24-hour incubation, experimental drugs are added to the 96 well plates. Each plate contains one of the above cell lines and the following in triplicate: 5 different concentrations (0.01, 0.1, 1, 10 and 100 μM) of 4 different compounds, appropriate dilutions of a cytotoxic standard and control (untreated) wells. Compounds are dissolved in dimethylsulfoxide (DMSO) to make 20 mM stock solutions, on the day of drug addition and frozen at −20° C. Serial dilutions of these 20 mM stock solutions are made in complete growth medium such that 100 μL of these drug solutions in medium, of final concentrations equaling 0.01, 0.1, 1, 10 and 100 μM can be added to the cells in triplicate. Standard drugs whose anti-cancer activity has been well documented and which are regularly used are doxorubicin and SAHA.
(§4) Cells are incubated with compounds for 48 hours followed by the addition of 10 μL 3-(4,5-Dimethyl-2-thiazolyl)-2,5-diphenyl-2H-tetrazolium (MTT) solution per well and a subsequent incubation at 37° C., 5% CO2, 95% air and 100% relative humidity, protected from light. After 4 hours, well contents are aspirated carefully followed by addition of 150 μL DMSO per well. Plates are agitated to ensure solution of the formazan crystals in DMSO and absorbance read at 570 nm.
(§5) Calculation of GI50, TGI and LC50
(§6) Percent growth is calculated for each compound's concentration relative to the control and zero measurement wells (T0; viability right before compound addition).
(§7) If a test well's O.D. value is greater than the T0 measurement for that cell line % Growth=(test−zero)/(control−zero)×100
(§8) If a test well's O.D. value is lower than the T0 measurement for that cell line, then % Growth=(test−zero)/zero×100 Plotting % growth versus experimental drug concentration, GI50 is the concentration required to decrease % growth by 50%; TGI is the concentration required to decrease % growth by 100% and LC50 is the concentration required to decrease % growth by 150%.

Data set [2] deals with NCI-H460. As to the kind of experiment: Anti-cancer screen (MTT), NCI-H460. The data set is classed as cell-based. The settings on record: Homo sapiens, NCI-H460, 48 hours. The procedure: as §1, §2, §3, §4, §5, §6, §7, §8
In data set [3] the test system is DU-145. As to the kind of experiment: Anti-cancer screen (MTT), DU-145. The data set is classed as cell-based. The following applies: Homo sapiens, DU-145, 48 hours.
The target of data set [4] is purified recombinant COX-1 (Homo sapiens, UniProt P23219). As to the kind of experiment: COX-1 enzyme based assay. The following applies: NA = No activity, read-out: % Inhibition in rEnzyme Assay COX-1. The data set is classed as biochemical. The procedure:
(§9) COX-1 and COX-2 Enzyme Based Assay
(§10) COX-1 and COX-2 enzyme based assays were carried out to check the inhibitory potential of the test compounds on the production of prostaglandin by purified recombinant COX-1/COX-2 enzyme (Proc. Nat. Acad. Sci. USA, 88, 2692-2696, 1991; J. Clin. Immunoassay 15, 116-120, 1992) In this assay, the potential of the test compound to inhibit the production of prostaglandin either by COX-1 or COX-2 from arachidonic acid (substrate) was measured. This was an enzyme based in-vitro assay to evaluate selective COX inhibition with good reproducibility.
(§11) Arachidonic acid was converted to PGH2 (Intermediate product) by COX1/COX-2 in the presence or absence of the test compound. The reaction was carried out at 37° C. and after 2 minutes it was stopped by adding 1M HCl. Intermediate product PGH2 was converted to a stable prostanoid product PGF2αby SnCl2 reduction. The amount of PGF2α, produced in the reaction was inversely proportional to the COX inhibitory potential of the test compound. The prostanoid product was quantified via enzyme immunoassay (EIA) using a broadly specific antibody that binds to all the major forms of prostaglandin, using Cayman ELISA kit as per the procedure outlined by the manufacturer (Cayman Chemicals, Ann Arbor, USA).

Data set [5] has as its target T1, purified recombinant COX-2 (Homo sapiens, UniProt P35354).
T1 sequence (P35354 18-604): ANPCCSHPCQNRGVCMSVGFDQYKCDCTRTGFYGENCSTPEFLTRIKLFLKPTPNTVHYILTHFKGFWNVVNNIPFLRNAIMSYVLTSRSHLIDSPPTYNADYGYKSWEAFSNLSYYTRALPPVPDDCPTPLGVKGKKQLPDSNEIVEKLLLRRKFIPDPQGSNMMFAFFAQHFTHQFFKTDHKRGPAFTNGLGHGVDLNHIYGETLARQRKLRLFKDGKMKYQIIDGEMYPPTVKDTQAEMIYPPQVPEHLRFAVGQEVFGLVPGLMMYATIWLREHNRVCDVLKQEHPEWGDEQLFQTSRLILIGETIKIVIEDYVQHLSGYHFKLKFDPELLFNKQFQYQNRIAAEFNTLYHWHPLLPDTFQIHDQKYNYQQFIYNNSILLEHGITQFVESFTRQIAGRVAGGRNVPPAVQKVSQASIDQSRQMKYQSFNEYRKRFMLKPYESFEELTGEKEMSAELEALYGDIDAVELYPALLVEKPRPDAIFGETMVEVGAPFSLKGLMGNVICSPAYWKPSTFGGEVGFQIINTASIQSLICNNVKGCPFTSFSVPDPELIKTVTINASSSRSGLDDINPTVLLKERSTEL
As to the kind of experiment: COX-2 enzyme based assay. The data set is classed as biochemical. The following applies: NA = No activity, read-out: % Inhibition in rEnzyme Assay COX-2. The procedure:
as §9, §10, §11

The subject of data set [6] is Male wistar rats. As to the kind of experiment: Carrageenan induced paw edema test in rat. The data set is classed as in vivo. The settings on record: oral, 3 hours after carrageenan. How it is done:
Carrageenan Induced Paw Edema Test in Rat
The carrageenan paw edema test was performed as described by Winter et al (Proc. Soc. Exp. Biol. Med, 111, 544, 1962). Male wistar rats were selected with body weights equivalent within each group. The rats were fasted for 18 hours with free access to water. The rats were dosed orally with the test compound suspended in the vehicle containing 0.25% carboxymethylcellulose and 0.5% Tween 80. The control rats were administered with vehicle alone. After an hour, the rats were injected with 0.1 ml of 1% Carrageenan solution in 0.9% saline into the sub-plantar surface of the right hind paw. Paw volume was measured using digital plethysmograph before and after 3 hours of carrageenan injection. The average of foot swelling in drug treated animals was compared with that of the control animals. Anti-inflammatory activity was expressed as the percentage inhibition of edema compared with control group [Arzneim-Forsch/Drug Res., 43 (I), 1, 44-50, 1993; Representative results of edema inhibition are shown in the Table VI.
Background: The carrageenan paw model is a standard test of acute inflammation.

The subject of data set [7] is TNF-α. As to the kind of experiment: In vitro measurement of TNF-α in human PBMC (LPS stimulated). It is filed as cell-based. The settings on record: for inhibition at 1 µM: NA = No activity, read-out: TNF-α Inhibition (%) at Conc. (1 μM); for inhibition at 10 µM: read-out: TNF-α Inhibition (%) at Conc. (10 μM). How it is done:
In Vitro Measurement of Tumor Necrosis Factor Alpha (TNF-α)
This assay determines the effect of test compounds on the production of TNF α in human Peripheral Blood Mononuclear Cells (PBMC). Compounds were tested for their ability to inhibit the activity of TNF α in human PBMC. PBMC were isolated from blood (of healthy volunteers) using BD Vacutainer CPT™ (Cell preparation tube, BD Bio Science) and suspended in RPMI medium (Physiol. Res. 52: 593-598, 2003). The test compounds were pre-incubated with PBMC (0.5 million/incubation well) for 15 minutes at 37° C. and then stimulated with Lipopolysaccharide (Escherichia coli: B4; 1 μg/ml) for 18 hours at 37° C. in 5% CO2. The levels of TNF-α in the cell culture medium were estimated using enzyme-linked immunosorbent assay performed in a 96 well format as per the procedure of the manufacturer (Cayman Chemical, Ann Arbor, USA).

Data set [8] concerns Animals (male wistar). As to the kind of experiment: Ulcerogenic potential. The data set is classed as in vivo. The following applies: oral, 4 hours after administration. How it is done:
In order to evaluate the compound's role on the ulcer formation, the animals were sacrificed and the stomach was taken out and flushed with 1% formalin. Animals (male wistar. 200 g) were fasted for 18 hours with free access to water and the test compounds were suspended in 0.5% Tween 80 and 0.25% CMC (carboxymethylcellulose) solution to make a uniform suspension. After 4 hours of oral administration of test compounds, all the animals were sacrificed by cervical dislocation. The stomach was dissected carefully and filled up with a sterile saline solution and embedded in 6% formalin solution. […] The test compound treated groups were compared with the vehicle treated groups. […]

The test system of data set [9] is IL-12. As to the kind of experiment: IL-12 inhibition. It is filed as cell-based.
The subject of data set [10] is IL-6. As to the kind of experiment: In vitro measurement of IL-6 in human PBMC (LPS stimulated). The data set is classed as cell-based. The settings on record: 10 μM, read-out: IL-6 Inhibition (%) Conc. (10 μM). How it is done: In Vitro Measurement of Interleukin-6(IL-6)
This assay determins the effect of test compounds on the production of IL-6 in human PBMC (Physiol. Res. 52: 593-598, 2003). Compounds were tested for their ability to inhibit the activity of IL-6 in human PBMC. PBMC were isolated from blood using BD Vacutainer CPT™ Cell preparation tube (BD Bio Science) and suspended in RPMI medium. The test compounds were pre-incubated with PBMC (0.5 million/incubation well) for 15 minutes at 37° C. and then stimulated with Lipopolysaccharide (Escherichia coli: B4; 1 μg/ml) for 18 hours at 37° C. in 5% CO2. The levels of IL-6 in cell culture medium were estimated using enzyme-linked immunosorbent assay performed in a 96 well format as per the procedure of the manufacturer (Cayman Chemical, Ann Arbor, USA).

Chain of purified recombinant COX-1 (P23219 24-599): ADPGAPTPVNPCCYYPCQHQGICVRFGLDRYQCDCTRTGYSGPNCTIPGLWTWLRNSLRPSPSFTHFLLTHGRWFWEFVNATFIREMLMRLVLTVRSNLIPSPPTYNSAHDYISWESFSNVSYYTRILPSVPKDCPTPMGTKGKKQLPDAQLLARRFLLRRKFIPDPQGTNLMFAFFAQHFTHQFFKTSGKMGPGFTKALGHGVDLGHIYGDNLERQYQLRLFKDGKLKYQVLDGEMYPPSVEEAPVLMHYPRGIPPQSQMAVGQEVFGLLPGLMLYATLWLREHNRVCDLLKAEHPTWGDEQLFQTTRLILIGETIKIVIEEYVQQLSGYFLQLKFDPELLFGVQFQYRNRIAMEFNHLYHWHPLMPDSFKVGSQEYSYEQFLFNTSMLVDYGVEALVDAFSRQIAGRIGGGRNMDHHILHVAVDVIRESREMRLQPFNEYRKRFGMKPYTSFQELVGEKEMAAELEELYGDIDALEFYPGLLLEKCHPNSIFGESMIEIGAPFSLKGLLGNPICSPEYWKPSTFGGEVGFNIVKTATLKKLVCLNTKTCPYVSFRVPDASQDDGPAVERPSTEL

As for `CNS(=O)(=O)c1ccc(-c2c(N)nc(C(F)(F)F)nc2-c2ccc(S(C)(=O)=O)cc2)cc1` [Example 2, 4-{4-Amino-6-[4-(methylsulfonyl)phenyl]-2-(trifluoromethyl)pyrimidin-5-yl}-N-methylbenzenesulfonamide], the GI50 amounted to 2.5 µM in data set [1], 8.5 µM in data set [2] and 3.5 µM in [3]. Further, the values for the inhibition at 1 µM in data set [4] (1 μM) and in data set [5] (1 μM) were 33.8% and 17.3%, respectively. Moreover, the inhibition at 10 µM amounted to 50.4% in [4] (10 μM) and 48.9% in data set [5] (10 μM).

Regarding `CNc1nc(C(F)(F)F)nc(-c2ccc(S(C)(=O)=O)cc2)c1-c1ccc(S(=O)(=O)NC)cc1` [Example 5, 4-{4-(Methylamino)-6-[4-(methylsulfonyl)phenyl]-2-(trifluoromethyl)pyrimidin-5-yl}-N-methylbenzenesulfonamide], the “Inhibition of edema (%) at 5 mg/kg” value in data set [6] amounted to 14.5%. Besides, in data set [7], the inhibition at 1 µM was found to be 35.9% and the inhibition at 10 µM was 56.3%. The “Ulcer incidence at 5 mg/kg” value in data set [8] was “Nil”.

In the case of `CS(=O)(=O)c1ccc(-c2nc(C(F)(F)F)nc(N3CCN(C(=O)c4ccc([N+](=O)[O-])o4)CC3)c2-c2ccccc2)cc1` [Example 38, 6-[4-(Methylsulfonyl)phenyl]-4-[4-(5-nitro-2-furoyl)piperazin-1-yl]-5-phenyl-2-(trifluoromethyl)pyrimidine], the values for the 50% growth inhibitory concentration (GI50) in [1], in data set [2] and in data set [3] were 6 µM, 3.75 µM and 4 µM, respectively.

On to `CS(=O)(=O)c1ccc(-c2nc(C(F)(F)F)nc(N3CCN(S(=O)(=O)c4ccc(F)cc4Cl)CC3)c2-c2ccccc2)cc1` [Example 157, 4-{4-[(2-Chloro-4-fluorophenyl)sulfonyl]piperazin-1-yl}-6-(4-methylsulfonylphenyl)-5-phenyl-2-(trifluoromethyl)pyrimidine], for which the inhibition at 1 µM came out at 69% in [9] (read-out: IL-12 Inhibition (%) Conc. (1 μM)) and 33.5% in data set [7]. Moreover, the values for the inhibition at 10 µM in [9] (read-out: IL-12 Inhibition (%) Conc. (10 μM)), in data set [7] and in [10] were 98.3%, 91.3% and 65.7%, respectively.

Broadly, the GI50 is the concentration giving 50% growth inhibition. A lower GI50 goes with more potent growth inhibition. A word on the inhibition: it is the share of the control response that was lost under treatment.
